Test results from a melting point compilation (Tetko et al.; mined from patent text by program, amines drawn as free bases though some values may be those of a salt).

SMILES | melting point [°C]
CN1C(=S)N(c2ccc(C#N)c(C(F)(F)F)c2)C(=O)C1(C)C | 171
CC(=O)C(C)(O)c1ccc(O)cc1 (configuration not stated) | 101 to 102
C=C(C)COc1cc(C(=O)OC)ccc1OC | 62 to 63
CCCC1=C(C(=O)OCC)C(c2cccnc2)c2c[nH]nc2N1 (configuration not stated) | 251
O=C1CCCc2c(cccc2OCC2CO2)N1 (configuration not stated) | 121 to 123
Nc1ccc(-n2c(-c3ccccc3)cc3c2CCCC3)cc1C(=O)O | 206
CC(C)(C)c1ccc(OCCCCCN2CCN(c3nccs3)CC2)cc1 | 71 to 73
Cc1cc(C(F)(F)F)n2nc(NS(=O)(=O)c3ccccc3Cl)nc2n1 | 203 to 204
Cc1sc2c(=O)[nH]cnc2c1Br | 320 to 322
CS(=O)(=O)Nc1cc(N)ccc1OC1CCCCC1 | 152 to 154
Cc1cccc(NC(=O)NC2N=C(C3CC3)c3cccc(C)c3N(CC(=O)N3CCCCCCC3)C2=O)c1 (configuration not stated) | 178 to 179
CC(O)COc1ccc2c(c1)OC(C)(C)CC2=O (configuration not stated) | 111 to 113
CCCN1CC(C)C=C2c3cccc4c3C(CN4)CC21 (configuration not stated) | 135 to 137
CC1CC(C)CN(S(=O)(=O)c2ccc(F)c(C(=O)O)c2)C1 (configuration not stated) | 140
CN(C)C(=O)C(=O)c1c(Cl)n(C)c2ccc(Cl)cc12 | 205 to 206
CC(C)(C)OC(=O)N1CCC(c2ccc(COc3ccc(-c4nc[nH]n4)cc3)nc2)CC1 | 147 to 150
CCCC[C@H](OCC[C@]1(C(=O)N2CCC(OCOC)CC2)C=CC=CC1)C(=O)N[C@@H](CC1CCCCC1)[C@@H](O)C(F)(F)CN(C)C | 47 to 49
O=C(c1ccccc1)c1cc(C(F)(F)F)ccc1NC=C[N+](=O)[O-] | 196 to 198
CCC1c2cccn2-c2cc(OC)c(F)cc2N1S(=O)(=O)c1ccc(OC)c(C)c1 (configuration not stated) | 130 to 132
CC(C)Cc1nn(C)c(=O)c2c(SCCCO)c(Cc3ccccc3)sc12 | 60 to 65
CCOC(=O)CC[C@H](NC(=O)c1ccc(N)c(C)c1)C(=O)OCC | 79 to 82

SMILES | melting point [°C]
COc1ccc2[nH]nc(N3CCN(C)CC3)c2c1 | 158 to 160
NC(=O)CCC(=O)c1ccccc1 | 122 to 124
C[C@]1(COC(=O)N2CCCc3cc(Cl)ccc32)Cn2cc([N+](=O)[O-])nc2O1 | 172 to 174
CN(CCNc1ccc([N+](=O)[O-])cc1)S(C)(=O)=O | 109
CC(C)(C)OC(=O)N1CCOC(C2=C(C#N)C(c3cccc(C#N)c3Br)c3c[nH]nc3N2)C1 (configuration not stated) | 219
Cc1n[nH]c2cc(-c3nn(C(C)c4oc5cccc(F)c5c(=O)c4-c4cccc(F)c4)c4ncnc(N)c34)ccc12 (configuration not stated) | 156 to 159
O=C(O)c1ccc(NC(=O)c2sc3c([N+](=O)[O-])c(O)c(O)cc3c2Cl)cc1 | 298 to 300
CC(C)Cn1c(=O)n(C)c(=O)c2c(SCCCO)n(Cc3ccccc3CS(=O)(=O)c3ccccc3)nc21 | 50
Cn1c(SCCCN2CCc3ccc(NS(C)(=O)=O)cc3C2)nnc1-c1ccccc1 | 90
COC(=O)c1ccc(Cc2c(Cl)n(C)c3cc(Cl)c(CCNC(=O)N(C)C)cc23)c(OC)c1 | 186 to 189
O=C(O)c1cccc(NC(=O)C(CS)CCCc2ccccc2)c1 (configuration not stated) | 134 to 136
Cc1c(C)c2c(c(C)c1NCc1ccccc1)C(c1ccccc1)CO2 (configuration not stated) | 107 to 108
CCOC(=O)N1C(=O)C(C)(C)c2cc(C3=NNC(=O)SC3C)ccc21 (configuration not stated) | 246
O=C(O)C(=O)CC(=O)c1cn(Cc2ccc(F)cc2)c2ccccc12 | 161 to 162
CC(=O)N[C@@H](C)COc1cnc(-c2nc3ccc(OCC4CC4)cc3o2)c(F)c1 | 158 to 159
CCN1c2ncccc2C(=O)Nc2c(C)cc(N3CCCCC3CCO)nc21 (configuration not stated) | 234 to 237
CC(c1cc(C#N)ncn1)C(O)(Cn1cncn1)c1ccc(F)cc1F (configuration not stated) | 148 to 149
CC(=O)CC(C)(C)Cn1cnc2c(N)nc3ccccc3c21 | 214 to 216
Cc1cc2c(c(C(C)(C)C)c1)OP(NC1CC(C)(C)N(C)C(C)(C)C1)Oc1c(cc(C)cc1C(C)(C)C)C2 | 207 to 216
Cc1cn(C(C)C(N)=O)nc1-c1ccccc1 (configuration not stated) | 99 to 101
O=C(Nc1ccccc1)C1=C(N2CCOCC2)COC1=O | 205 to 206

SMILES | melting point [°C]
CCOCc1nc2c(N)nc3ccccc3c2n1OC(C)C | 179 to 181
CCCCCCn1ccc(NC(C)=O)nc1=O | 129 to 130
Cc1cccc(-c2nccc(O)n2)c1 | 148 to 150
CCOC(=O)N1C(c2ccccc2)OC(=O)C1c1ccccc1 (configuration not stated) | 197 to 199
CCN(CC)CCc1ccc2cc(N)ccc2n1 | 93 to 94
CCCCCCCCCCCCc1ccc(CCC(N)(CO)CCO)cc1 (configuration not stated) | 75 to 77
C#CCNC(=O)c1ncn2c1[C@@H]1CCCN1Cc1c(Cl)cccc1-2 | 233 to 235
Cn1cc(C(=O)NCCCO)c(Nc2ccc(Br)cc2F)cc1=O | 78 to 83
CCCCC(=O)c1c(C(C)(C)C)cc(C=[N+]([O-])C(C)(C)C)cc1C(C)(C)C | 196 to 205
O=Cc1ccc(OCC2CN(Cc3ccccc3)c3ccccc3O2)cc1 (configuration not stated) | 92 to 94
CCOC(=O)c1cc(=O)c2ccc(O)cc2o1 | 221 to 223
CC(Cl)=Cc1ccc([N+](=O)[O-])o1 | 55 to 65
Cc1ncccc1CC(=NC#N)NC1CCCc2ccccc21 (configuration not stated) | 193 to 194
O[C@@H]1CN=C(c2ccc(N3CCOCC3)cc2)O[C@H]1c1ccccc1 (racemic) | 150
CCCCCCCCCCCCCCCCCCOCCOCCO | 45 to 46
O=c1[nH]c(=Cc2ccc(OCc3ccccc3)cn2)c(=O)[nH]c1=Cc1ccc([N+](=O)[O-])cc1 | > 300
C#CC1(OC(=O)NCCCC)CCN(CCC=C(c2ccc(F)cc2)c2ccc(F)cc2)CC1 | 83 to 84
CCCCCCCCOc1ccc(-c2ccc(OC(F)F)cc2)cc1 | 104
Fc1ccc(COc2cccnc2NC(=S)Nc2ccc(Cl)cc2)c(F)c1 | 154 to 156
O=c1[nH]c2cc(F)ccc2c(=O)n1CCCN1CC=C(c2ccc(Cl)cc2)CC1 | 197 to 198

The remaining lines, values ahead:

melting point [°C] | SMILES
139 to 142 | c1ccc(-c2nc3ncccc3[nH]2)nc1
297 to 298 | CN(C)c1ccc(-c2cc3nccnc3[nH]2)cc1
69 to 70 | O=S(=O)(Nc1c(F)c(F)nc(F)c1F)C(F)(F)F
122 | CC(C)N(C(=O)c1cccc2c1CCc1cc(C(F)(F)F)ccc1S2)C(C)C
106 to 108 | C[C@@H]1CCC[C@H](C)N1CCN1CCN(CCCN2CCCCC2)C1=C(C#N)C#N
145 to 148 | CCOC(=O)C(Cl)=NNc1ccc(Cl)cc1
192 to 195 | O=C1c2ccccc2N(Cc2ccc(F)cc2)C2=NCCN12
71 to 72 | CN(C)c1cccc(Oc2cccc(Cl)n2)c1
165 to 166 | CCOC(=O)C(C)Oc1ccc2c(=O)c(-c3ccccc3)coc2c1 (configuration not stated)
130 to 146 | COC(=O)C1(C)CN(C(=O)Nc2ccc(Cl)cn2)N=C1c1ccc(Cl)cc1 (configuration not stated)
175 to 177 | N#Cc1c[nH]cc1-c1ccc(Cl)cc1C(=O)c1ccccc1
96 to 97 | CC(=O)C(=NNc1ccccc1)C(=O)Nc1ccccc1
159 to 160 | Nc1nc(SC2CCC2)c2ncn(C3C=CC(CO)C3)c2n1 (configuration not stated)
126 to 128 | NC(=O)N(O)CC=Cc1ccc(Oc2ccccc2)o1
122 to 124 | CC(C)(c1ccccc1)c1cccc(S(=O)(=O)NC(CCCNC(=N)N)C(=O)O)c1 (configuration not stated)
131 | COC(=O)C=CC(=O)Nc1ccc(Cl)cc1C(=O)NC(C)C1CC1 (configuration not stated)
173 to 175 | C=CCNC(=O)[C@H]1N(C(=O)[C@@H](O)[C@H](Cc2ccccc2)NC(=O)c2cccc(O)c2C)CSC1(C)C
64.5 to 65 | OC(c1ccc(Cl)cc1)c1cccc(Br)n1 (configuration not stated)
271 to 273 | Cc1ccc(C)c2c1CCC2=NNC(N)=NC(c1ccccc1)c1ccccc1
154 to 155 | CC(=O)c1ccc2cc(S(N)(=O)=O)sc2c1

melting point [°C] | SMILES
228 | O=C(N[C@H]1CC[C@H](CCN2CCC(c3cccc4c3CCO4)CC2)CC1)c1ccc(-n2cccc2)cc1
50 to 60 | O=C(NCCCCc1ccccc1)OC1CCN(C(=O)OC2CCN(C(=O)Oc3ccc(Oc4ccccc4)cc3)CC2)CC1
152 to 155 | CCCCCCCCCCCCc1nnn(C(CCCCC)C(=O)Nc2c(OC)cc(OC)cc2OC)n1 (configuration not stated)
74 to 75 | CCOC(=O)c1nn(-c2ccc(C)cc2)nc1-c1ccccc1
183 to 184 | CN1CCN(C2=Nc3cc(Br)ccc3Nc3nn(C)nc32)CC1
88 to 90 | CCCc1c(OCCCC#CCO)ccc(C(C)=O)c1O
101 to 102 | COC(=O)c1ccc(C(C)=O)o1
124 to 125 | O=c1c2cccc3ncc(c(=O)n1CCCNS(=O)(=O)C(F)(F)F)n32
249 to 251 | O=C(c1ccc(F)cc1)c1nccc(O)c1O
197 to 198 | CCc1c(OC)cc(C)c(C=CC(C)=CC=CC(C)=CC(=O)O)c1C
94 to 97 | CCOc1cc(Cl)nc(Sc2ccc(C)cc2)n1
140 | Oc1ccc(-c2ccc(OC(F)(F)F)cc2)cc1
172 | Oc1c(CN2CCOCC2)ncc2c1COC2c1ccccc1 (configuration not stated)
227 to 229 | CNC(=O)Nc1ccc(CN2OCC(C)(C)C2=O)c(Cl)c1
82 to 83 | O=C(Nc1ccc(-n2cccn2)c(F)c1)OCc1ccccc1
169 to 171 | c1ccn2c(=Nc3nccs3)snc2c1
166 | COc1cc(N)c(Cl)cc1C(=O)N[C@H]1CCN(CCCC(=O)c2cccnc2)C[C@H]1OC (relative stereo)
106 to 109 | CNc1cc(Oc2ccc(NC(=O)Nc3ccc(-c4cccc(C)n4)c(C(F)(F)F)c3)cc2)ncn1
133 to 135 | CCCc1c(OCC2COc3c(F)cc(CC(=O)O)cc32)ccc(C(C)=O)c1O (configuration not stated)
103 to 106 | CCOC(=O)COC1OCC[C@@H]1NC(=O)[C@H](Cc1ccccc1)NC(=O)OCc1ccccc1 (some centres not stated)
